{
  "source": "patent US20230000868A1",
  "about": "“USE OF 2-PHENYL-6-(1H-IMIDAZOL-1-YL) QUINAZOLINE FOR THE PREVENTION OF ABUSE AND OF SIDE EFFECTS OF AT LEAST ONE OPIOID” (ROTTAPHARM BIOTECH S.R.L., priority 2019, published 2023)",
  "key": {"[1]": {"assay": "Open field test (distance travelled, sedation)", "protocol": "The so-called open field test was used as a first model and the experiments were performed according to the procedure described by Haleem and Nawaz (Pain, 2017, 18:19-28). Drugs were administered 60 min (CR4056 or its vehicle, p.o.) and 30 min (morphine or its vehicle, s.c.) before the open field test. The video tracking was performed using the software Ethovision XT 13 (Noldus Information Technology), to assess the “distance travelled” as the primary parameter of sedation in this model. The test was performed every day after 4 days of repeated treatment."}, "[2]": {"assay": "Inflammatory pain induced by complete Freund adjuvant (CFA)", "assay_type": "in vivo, rat", "details": "CR4056 1 mg/kg alone; FIG. 1, described as known effects", "from_the_text": "Previous art in the scientific literature describes that imidazoline I2 receptor agonists potentiate morphine-induced analgesia."}, "[3]": {"assay": "Conditioned place preference (CPP)", "from_the_text": "This test exploits the tendency of rats to associate the environment where they are located with the effect of drugs administered during a conditioning period. The experiment was done in a wooden apparatus consisting of two lateral chambers (30×25 cm, length×width) with different visual and tactile properties and a central “neutral” chamber, smaller than the others (12×25 cm, length×width) with total white floor and walls. The lateral chambers had different decoration of walls (points or stripes) and different type of floor (smooth or rough). These differences can be recognized by rats, and thus associated with the effect of drug or vehicle treatment. All walls were 38.5 cm high. Four days before the preconditioning phase, the light/dark cycle was inverted; all phases of experiments were performed during the dark phase. On the preconditioning day (day 1), Wistar rats (Charles River) were placed in the neutral chamber and for 15 min they were free to explore all the environments of the apparatus (van der Kam E. L. et al. Pain, 2008, 136:373-379). The time spent in each chamber was recorded with a video tracking software (Ethovision XT 13, Noldus information technology). Rats that spent over 60% of time in one of two lateral chambers were not admitted to the conditioning phase: for admitted animals, the “preferred” chamber was therefore the one where a rat spent between 50% and 60% of time during preconditioning (while the “unpreferred” chamber was the opposite one). After preconditioning, rats were randomly assigned to the experimental groups (n=16). A total of 256 rats were used in this model. During the 2 days of the conditioning phase rats were treated with the test drug(s) (day 2) or vehicle (day 3). On the first conditioning day rats were treated with the test drug(s) and were confined in the preconditioning unpreferred lateral chamber (now defined paired chamber), with no access to the other chambers of the apparatus for 40 min. On the second day of conditioning rats were treated with vehicle and were located in the opposite chamber (unpaired chamber). The control group received vehicle in both chambers. CR4056 or its vehicle were administered 40 min before conditioning, whereas morphine or its vehicle were administered immediately before conditioning. There was no treatment on the test day (day 4), when rats were placed in the neutral chamber with the possibility to explore all chambers of the apparatus. The time spent in each chamber was recorded.\nCR4056 (1 mg/kg) and morphine (1 mg/kg) alone or in co-administration were administered every other day. After 8 days of conditioning the test day was held as described above."}, "[4]": {"assay": "Opioid-induced constipation (faecal number 16 h after drug treatment)", "protocol": "The experiments were conducted according to the procedure described by Harada et al. (J. Pharmacol. Exp. Ther. 2017, 362: 78-84). Wistar rats were used in this model. Fecal excretion was evaluated at the end of the dark phase of the light/dark cycle, when most activities and feeding of albino rats take place. Drugs were administered 2 h before the dark phase of the light/dark cycle, and the feces were collected and counted 16 h after drug treatment. In this experimental paradigm, CR4056 1 or 6 mg/kg was administered orally 15 min before morphine or codeine. A full analgesic dose of morphine (10 mg/kg subcutaneous) or codeine (12 mg/kg oral) were administered 15 minutes after CR4056 or vehicle."}, "[5]": {"assay": "Sedation rating scale", "assay_type": "in vivo, rat", "from_the_text": "In addition, sedation was scored before each rotarod testing by the sedation rating scale. […] At each time point, a score from 0 (maximum sedation) to 5 (absent sedation) was assigned to each of the 8 parameters. The sum of the scores produced the total score."}, "[6]": {"details": "morphine 1 mg/kg alone vs control rats"}, "[7]": {"details": "single administration, Morphine 1 mg/Kg"}, "[8]": {"details": "single administration, Morphine 2.5 mg/Kg"}, "[9]": {"details": "single administration, Morphine 5 mg/Kg"}},
  "note": "“Also recorded” adds a separate entry of the source. Read-outs that look alike come from different tables or passages of the source.",
  "data": [
    {"smiles": "c1ccc(-c2ncc3cc(-n4ccnc4)ccc3n2)cc1", "note": "[CR4056, 2-phenyl-6-(1H-imidazol-1-yl) quinazoline]", "values": [
      {"measurement": "locomotor activity (sedation)", "setting": "[1]; in vivo, po, 1 mg/kg", "result": "not sedative per se"},
      {"measurement": "analgesic effect", "setting": "[2]", "result": "non-analgesic"},
      {"measurement": "place preference", "setting": "[3]; rat, in vivo, 6 mg/kg", "result": "did not induce place preference"}
    ]},
    {"smiles": "COc1ccc2c3c1O[C@H]1[C@@H](O)C=C[C@H]4[C@@H](C2)N(C)CC[C@@]341", "note": "[Codeine, codeine]", "values": [
      {"measurement": "defecation (faecal number)", "setting": "[4]; codeine 12 mg/kg oral, 16 h after treatment, vs vehicle or CR4056", "result": "significant decrease in defecation"}
    ]},
    {"smiles": "CN1CC[C@]23c4c5ccc(O)c4O[C@H]2[C@@H](O)C=C[C@H]3[C@H]1C5", "note": "[Morphine, morphine]", "values": [
      {"measurement": "locomotor activity (sensitization)", "setting": "[1]; morphine 1-2.5 mg/kg, increased locomotor activity over 4 days of repeated treatment", "result": "modest sensitization"},
      {"measurement": "locomotor activity (sedation)", "setting": "[1]; morphine s.c. at doses higher than 5 mg/kg, 4 days of repeated treatment", "result": "clear sedative effect"},
      {"measurement": "locomotor activity (sedation)", "setting": "[1]; morphine s.c., lower doses (not higher than 5 mg/kg)", "result": "not sedative"},
      {"measurement": "faecal number", "setting": "[4]; morphine 10 mg/kg subcutaneous, 16 h, P<0.05 vs vehicle", "result": "significant decrease in faecal number; also recorded: significantly reduced faecal count"},
      {"measurement": "sedation scores", "setting": "[5]; [6]", "result": "no significant changes in performance"},
      {"measurement": "sedation scores", "setting": "[5]; morphine 10 mg/kg vs controls", "result": "clearly sedative"},
      {"measurement": "rotarod performance", "setting": "[6]", "result": "no significant changes in performance"},
      {"measurement": "rotarod performance", "setting": "morphine 10 mg/kg vs controls", "result": "clearly sedative"},
      {"measurement": "preference for the paired chamber", "setting": "[3]; acute administration, morphine 1 mg/kg", "result": "did not induce preference"},
      {"measurement": "preference for the paired chamber (time paired vs unpaired)", "setting": "[3]; acute administration, morphine 2.5 mg/kg", "result": "induced a statistically significant difference"},
      {"measurement": "preference for the paired chamber (time paired vs unpaired)", "setting": "[3]; acute administration, morphine 5 mg/kg", "result": "induced a statistically significant difference"},
      {"measurement": "%(P − U)", "setting": "[3]; repeated administrations, 8 days of conditioning, Morphine 1 mg/kg", "result": "+14%"},
      {"measurement": "Δ(P − U) ± ES", "setting": "[3]; repeated administrations, 8 days of conditioning, Morphine 1 mg/kg, (*) paired t-test < 0.05", "result": "95 ± 17 (*)"},
      {"measurement": "Seconds in Unpaired chamber (U)", "setting": "[3]; repeated administrations, every other day, 8 days of conditioning, Morphine 1 mg/kg", "result": 295, "unit": "s"},
      {"measurement": "preference for the paired chamber", "setting": "[3]; repeated conditionings, morphine 1 mg/kg alone", "result": "induced preference"},
      {"measurement": "%(P − U)", "setting": "[3]; [7]", "result": 1.2, "unit": "%"},
      {"measurement": "Seconds in Unpaired chamber (U)", "setting": "[3]; [7]", "result": 341, "unit": "s"},
      {"measurement": "Δ(P − U) ± ES", "setting": "[3]; [7]", "result": "7.6 ± 9.4"},
      {"measurement": "%(P − U)", "setting": "[3]; [8]", "result": 17.1, "unit": "%"},
      {"measurement": "Seconds in Unpaired chamber (U)", "setting": "[3]; [8]", "result": 291, "unit": "s"},
      {"measurement": "%(P − U)", "setting": "[3]; [9]", "result": 20.2, "unit": "%"},
      {"measurement": "Seconds in Unpaired chamber (U)", "setting": "[3]; [9]", "result": 266, "unit": "s"}
    ]}
  ]
}
